PubChem BioAssay AID328 (DTP/NCI, 2004)
Inconclusive results and toxic doses are left out.

Test system: BDF1 mice, P388 leukemia ip, median survival T/C
Test: NCI In Vivo Anticancer Drug Screen. Data for tumor model P388 Leukemia (intraperitoneal) in B6D2F1 (BDF1) mice
Details: endpoint: median survival time, higher = longer survival
Summary of the method: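 Mice carrying the transplantable tumour receive compound or vehicle. Survival is followed in each arm, and the treated measure is divided by the vehicle measure.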

[1] = dose: 50.0 mg/kg/injection, schedule: Q01DX009 (ip), vehicle: saline with Tween-80
[2] = dose: 100.0 mg/kg/injection, schedule: Q04DX003 (ip), vehicle: saline with Tween-80
[3] = dose: 200.0 mg/kg/injection, schedule: Q04DX003 (ip), vehicle: saline with Tween-80
[4] = dose: 400.0 mg/kg/injection, schedule: Q04DX003 (ip), vehicle: saline with Tween-80
[5] = dose: 100.0 mg/kg/injection, schedule: Q01DX009 (ip), vehicle: saline with Tween-80

Q: With CC1CCC2N(C1)CC1C(C(O)C(O)C3(O)C1CC14OC5(O)C(O)CCC1(C)C5CC(O)C34)C2(C)O (configuration not stated) as the compound, how does the T/C (dose: 25.0 mg/kg/injection, schedule: Q01DX010 (ip), vehicle: carboxymethylcellulose (CMC)) read?
A: 100 % of control

Q: What about the T/C (dose: 50.0 mg/kg/injection, schedule: Q01DX010 (ip), vehicle: carboxymethylcellulose (CMC)) of the same compound?
A: 115 % of control

Q: And the T/C (dose: 100.0 mg/kg/injection, schedule: Q01DX010 (ip), vehicle: carboxymethylcellulose (CMC))?
A: 110 % of control

Q: Which T/C (dose: 12.5 mg/kg/injection, schedule: Q01DX009 (ip), vehicle: saline with Tween-80) does the source give for CCOC(=O)CSc1sc(C(=O)OCC)c(N)c1C#N here?
A: 99 % of control

Q: And the T/C (dose: 25.0 mg/kg/injection, schedule: Q01DX009 (ip), vehicle: saline with Tween-80)?
A: 99 % of control

Q: And the T/C [1]?
A: 99 % of control

Q: What does the source list for C=COCC(C)C (tested in a mixture with another compound)?
A: T/C (dose: 0.19 mg/kg/injection, schedule: Q01DX009 (ip), vehicle: Klucel (hydroxypropylcellulose) (HPC)): 105 % of control; T/C (dose: 0.39 mg/kg/injection, schedule: Q01DX009 (ip), vehicle: Klucel (hydroxypropylcellulose) (HPC)): 120 % of control; T/C (dose: 0.78 mg/kg/injection, schedule: Q01DX009 (ip), vehicle: Klucel (hydroxypropylcellulose) (HPC)): 120 % of control; T/C (dose: 0.78 mg/kg/injection, schedule: Q04DX003 (ip), vehicle: saline): 104 % of control; T/C (dose: 1.56 mg/kg/injection, schedule: Q01DX009 (ip), vehicle: Klucel (hydroxypropylcellulose) (HPC)): 100 % of control; T/C (dose: 1.56 mg/kg/injection, schedule: Q04DX003 (ip), vehicle: Klucel (hydroxypropylcellulose) (HPC)): 109 % of control; T/C (dose: 1.56 mg/kg/injection, schedule: Q04DX003 (ip), vehicle: saline): 95 % of control; T/C (dose: 3.12 mg/kg/injection, schedule: Q04DX003 (ip), vehicle: Klucel (hydroxypropylcellulose) (HPC)): 104 % of control; T/C (dose: 3.12 mg/kg/injection, schedule: Q04DX003 (ip), vehicle: saline): 104 % of control; T/C (dose: 4.6 mg/kg/injection, schedule: Q04DX003 (ip), vehicle: saline): 104 % of control; T/C (dose: 6.25 mg/kg/injection, schedule: Q04DX003 (ip), vehicle: Klucel (hydroxypropylcellulose) (HPC)): 113 % of control; T/C (dose: 7.0 mg/kg/injection, schedule: Q04DX003 (ip), vehicle: saline): 109 % of control; T/C (dose: 7.5 mg/kg/injection, schedule: Q01DX001 (ip), vehicle: alcohol): 91 % of control; T/C (dose: 8.75 mg/kg/injection, schedule: Q01DX009 (ip), vehicle: saline with Tween-80): 110 % of control; T/C (dose: 10.0 mg/kg/injection, schedule: Q04DX003 (ip), vehicle: saline): 104 % of control; T/C (dose: 15.0 mg/kg/injection, schedule: Q01DX001 (ip), vehicle: alcohol): 104 % of control; T/C (dose: 17.5 mg/kg/injection, schedule: Q01DX009 (ip), vehicle: saline with Tween-80): 95 % of control; T/C (dose: 30.0 mg/kg/injection, schedule: Q01DX001 (ip), vehicle: alcohol): 104 % of control

Q: How did the T/C [2] turn out when c1ccc(CCCSc2ccccc2)cc1 was run?
A: 118 % of control

Q: What about the T/C [3] of the same compound?
A: 113 % of control

Q: What about the T/C [4] of the same compound?
A: 109 % of control

Q: For COC1/C=C/OC2(C)Oc3c(C)c(O)c4c(O)c5c(c(O)c4c3C2=O)CN(C)C(=N5)/C(C)=C\C=C\C(C)C(O)C(C)C(O)C(C)C(OC(C)=O)C1C (configuration not stated), which T/C (dose: 100.0 mg/kg/injection, schedule: Q04DX002 (ip), vehicle: saline with Tween-80) is on record?
A: 97 % of control

Q: What about the T/C (dose: 200.0 mg/kg/injection, schedule: Q04DX002 (ip), vehicle: saline with Tween-80) of the same compound?
A: 97 % of control

Q: What about the T/C (dose: 400.0 mg/kg/injection, schedule: Q04DX002 (ip), vehicle: saline with Tween-80) of the same compound?
A: 116 % of control

Q: Which results are given for COC(=S)SCN(CSC(=S)OC)c1ccccc1Cl?
A: T/C [5]: 118 % of control; T/C (dose: 400.0 mg/kg/injection, schedule: Q01DX009 (ip), vehicle: saline with Tween-80): 159 % of control; T/C (dose: 600.0 mg/kg/injection, schedule: Q01DX009 (ip), vehicle: saline with Tween-80): 158 % of control

Q: How did the T/C [2] turn out when CCCNC(=O)Nc1ccc(C)cc1C was run?
A: 100 % of control

Q: And the T/C [3]?
A: 95 % of control

Q: And the T/C [4]?
A: 100 % of control

Q: Which T/C (dose: 6.25 mg/kg/injection, schedule: Q04DX003 (ip), vehicle: saline) does the source give for CC(=O)CC(C)=O.CC(=O)CC(C)=O.O.O.[Ni] here?
A: 108 % of control

Q: And the T/C (dose: 12.5 mg/kg/injection, schedule: Q04DX003 (ip), vehicle: saline)?
A: 104 % of control

Q: What about the T/C (dose: 25.0 mg/kg/injection, schedule: Q04DX003 (ip), vehicle: saline) of the same compound?
A: 114 % of control

Q: CCN(CC)CCOC(=O)c1ccc(OCCOc2ccc(C(C)(C)CC(C)(C)C)cc2)c([N+](=O)[O-])c1 was tested. Which T/C (dose: 75.0 mg/kg/injection, schedule: Q04DX003 (ip), vehicle: saline sonified) did it give?
A: 110 % of control

Q: What about the T/C (dose: 150.0 mg/kg/injection, schedule: Q04DX003 (ip), vehicle: saline sonified) of the same compound?
A: 110 % of control

Q: What about the T/C (dose: 300.0 mg/kg/injection, schedule: Q04DX003 (ip), vehicle: saline sonified) of the same compound?
A: 105 % of control

Q: For COc1ccc2[nH]c(=S)[nH]c(=S)c2c1, which T/C [2] is on record?
A: 92 % of control

Q: What about the T/C [3] of the same compound?
A: 91 % of control

Q: And the T/C [4]?
A: 100 % of control

Q: How did the T/C (dose: 50.0 mg/kg/injection, schedule: Q01DX005 (ip), vehicle: saline with Tween-80) turn out when N#CC(=Nc1cc(Cl)cc(Cl)c1)C1=C(O)c2ccccc2C1=O was run?
A: 101 % of control

Q: And the T/C (dose: 100.0 mg/kg/injection, schedule: Q01DX005 (ip), vehicle: saline with Tween-80)?
A: 111 % of control

Q: What about the T/C (dose: 200.0 mg/kg/injection, schedule: Q01DX005 (ip), vehicle: saline with Tween-80) of the same compound?
A: 101 % of control

Q: CCOC(=O)c1cnc(SCc2ccccc2Cl)nc1N1CC1 was tested. Which T/C (dose: 10.6 mg/kg/injection, schedule: Q01DX009 (ip), vehicle: Klucel (hydroxypropylcellulose) (HPC)) did it give?
A: 108 % of control

Q: And the T/C (dose: 28.05 mg/kg/injection, schedule: Q01DX009 (ip), vehicle: Klucel (hydroxypropylcellulose) (HPC))?
A: 114 % of control

Q: And the T/C (dose: 63.75 mg/kg/injection, schedule: Q01DX009 (ip), vehicle: Klucel (hydroxypropylcellulose) (HPC))?
A: 152 % of control

Q: What does the source list for CCCCCCOc1ccc(OCCCC[N+]2(CC)CCCCC2)cc1?
A: T/C (dose: 6.25 mg/kg/injection, schedule: Q01DX009 (ip), vehicle: saline): 103 % of control; T/C (dose: 12.5 mg/kg/injection, schedule: Q01DX009 (ip), vehicle: saline): 110 % of control

Q: What does the source list for O=C(/C=C/c1c(Cl)cccc1Cl)c1ccccc1?
A: T/C (dose: 50.0 mg/kg/injection, schedule: Q01DX009 (ip), vehicle: Klucel (hydroxypropylcellulose) (HPC)): 97 % of control; T/C (dose: 100.0 mg/kg/injection, schedule: Q01DX009 (ip), vehicle: Klucel (hydroxypropylcellulose) (HPC)): 105 % of control; T/C (dose: 200.0 mg/kg/injection, schedule: Q01DX009 (ip), vehicle: Klucel (hydroxypropylcellulose) (HPC)): 97 % of control

Q: C#CC1(OCC(O)CO)CCCCC1 (configuration not stated) was tested. Which T/C (dose: 3.12 mg/kg/injection, schedule: Q01DX009 (ip), vehicle: water) did it give?
A: 107 % of control

Q: And the T/C (dose: 6.25 mg/kg/injection, schedule: Q01DX009 (ip), vehicle: water)?
A: 110 % of control

Q: And the T/C (dose: 12.5 mg/kg/injection, schedule: Q01DX009 (ip), vehicle: water)?
A: 100 % of control

Q: What about the T/C (dose: 25.0 mg/kg/injection, schedule: Q01DX009 (ip), vehicle: water) of the same compound?
A: 110 % of control

Q: What about the T/C (dose: 50.0 mg/kg/injection, schedule: Q01DX009 (ip), vehicle: water) of the same compound?
A: 94 % of control

Q: And the T/C (dose: 100.0 mg/kg/injection, schedule: Q01DX009 (ip), vehicle: water)?
A: 103 % of control

Q: What about the T/C (dose: 200.0 mg/kg/injection, schedule: Q01DX009 (ip), vehicle: water) of the same compound?
A: 103 % of control

Q: And the T/C (dose: 400.0 mg/kg/injection, schedule: Q01DX009 (ip), vehicle: water)?
A: 118 % of control

Q: Which T/C [1] does the source give for CC(=O)Oc1c(Cl)c(Cl)c(C#N)c(Cl)c1C#N here?
A: 111 % of control

Q: What about the T/C [5] of the same compound?
A: 122 % of control

Q: Which results are given for C/C=C1\CN(C)[C@H]2Cc3c([nH]c4ccccc34)[C@@H](c3cc4[nH]c5c(c4cc3OC)CCN3C[C@H]4C[C@H](CC)[C@H]3[C@@]5(C(=O)OC)C4)C[C@H]1C2C(=O)OC (some centres not stated)?
A: T/C (dose: 5.0 mg/kg/injection, schedule: Q01DX010 (ip), vehicle: water): 90 % of control; T/C (dose: 10.0 mg/kg/injection, schedule: Q01DX010 (ip), vehicle: water): 109 % of control; T/C (dose: 20.0 mg/kg/injection, schedule: Q01DX010 (ip), vehicle: water): 118 % of control

Q: For O=C(CNC(=O)Nc1n[nH]c(=S)s1)N/N=C/c1ccccc1O, which T/C [1] is on record?
A: 100 % of control

Q: And the T/C [5]?
A: 91 % of control

Q: And the T/C (dose: 200.0 mg/kg/injection, schedule: Q01DX009 (ip), vehicle: saline with Tween-80)?
A: 98 % of control

Q: With COc1cccc(CN2CCNCC2)c1 as the compound, how does the T/C (dose: 6.25 mg/kg/injection, schedule: Q04DX003 (ip), vehicle: water) read?
A: 87 % of control

Q: What about the T/C (dose: 12.5 mg/kg/injection, schedule: Q04DX003 (ip), vehicle: water) of the same compound?
A: 89 % of control

Q: And the T/C (dose: 25.0 mg/kg/injection, schedule: Q04DX003 (ip), vehicle: water)?
A: 93 % of control

Q: And the T/C (dose: 50.0 mg/kg/injection, schedule: Q04DX003 (ip), vehicle: water)?
A: 101 % of control

Q: What about the T/C (dose: 100.0 mg/kg/injection, schedule: Q04DX003 (ip), vehicle: water) of the same compound?
A: 94 % of control
